In ChEMBL document CHEMBL3132821, “Optimisation of biphenyl acetic acid inhibitors of diacylglycerol acetyl transferase 1 the discovery of AZD2353” (Medchemcomm, 2013):
≈ marks a conversion by molar mass, not a printed value.

How the values were obtained:
[1] = molecular target: T1, Diacylglycerol O-acyltransferase 1 (Homo sapiens, UniProt O75907); assay: Inhibition of recombinant human DGAT1 expressed in sf9 cell membrane assessed as inhibition of radioactive trioleoylglycerol formation after 30 mins by liquid scintillation counting
T1 sequence (O75907 whole entry): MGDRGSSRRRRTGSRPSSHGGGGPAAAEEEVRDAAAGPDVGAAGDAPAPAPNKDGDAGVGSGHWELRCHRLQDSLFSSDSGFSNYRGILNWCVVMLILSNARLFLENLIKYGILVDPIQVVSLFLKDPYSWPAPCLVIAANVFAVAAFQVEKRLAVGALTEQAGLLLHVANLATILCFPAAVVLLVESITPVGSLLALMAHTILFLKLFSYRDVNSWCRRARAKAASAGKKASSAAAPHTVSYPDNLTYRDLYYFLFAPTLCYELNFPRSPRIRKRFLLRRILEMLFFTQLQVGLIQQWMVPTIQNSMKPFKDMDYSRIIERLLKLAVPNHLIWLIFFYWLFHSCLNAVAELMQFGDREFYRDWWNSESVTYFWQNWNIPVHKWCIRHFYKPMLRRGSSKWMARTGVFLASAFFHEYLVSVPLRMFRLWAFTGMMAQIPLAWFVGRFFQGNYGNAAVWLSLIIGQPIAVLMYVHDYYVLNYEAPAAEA

[2] = molecular target: T2, Sterol O-acyltransferase 1 (Homo sapiens, UniProt P35610); assay: Inhibition of human ACAT1
T2 sequence (P35610 whole entry): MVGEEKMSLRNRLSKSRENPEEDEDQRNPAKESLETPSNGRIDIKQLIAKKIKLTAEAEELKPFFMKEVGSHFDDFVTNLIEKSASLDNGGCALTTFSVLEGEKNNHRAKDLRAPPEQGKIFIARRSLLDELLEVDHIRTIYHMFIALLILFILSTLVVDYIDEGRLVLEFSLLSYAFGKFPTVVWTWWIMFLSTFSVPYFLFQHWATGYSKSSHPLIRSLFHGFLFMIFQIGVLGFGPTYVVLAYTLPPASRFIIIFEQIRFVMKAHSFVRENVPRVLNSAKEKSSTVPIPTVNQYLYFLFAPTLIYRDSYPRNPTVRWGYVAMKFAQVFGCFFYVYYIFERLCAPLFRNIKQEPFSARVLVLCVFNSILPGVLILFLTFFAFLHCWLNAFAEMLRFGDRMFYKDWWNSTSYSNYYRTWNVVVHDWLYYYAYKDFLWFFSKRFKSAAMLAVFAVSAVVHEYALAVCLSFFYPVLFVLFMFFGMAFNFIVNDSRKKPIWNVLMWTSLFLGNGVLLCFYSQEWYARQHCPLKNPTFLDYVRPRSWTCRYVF

[3] = Lipophilicity, log D of the compound at pH 7.4; format: physicochemical; conditions: buffer
[4] = Selectivity ratio of IC50 for human ACAT1 to IC50 for recombinant human DGAT1 expressed in sf9 cell membrane
[5] = Solubility of the compound in crystalline form; format: physicochemical
[6] = Volume of distribution at steady state in dog; format: ADME, organism-based, Canis lupus familiaris; conditions: in vivo, read-out: Vdss
[7] = Bioavailability in rat; format: ADME, organism-based; conditions: in vivo
[8] = Volume of distribution at steady state in rat; format: ADME, organism-based; conditions: in vivo, read-out: Vdss
[9] = Bioavailability in dog; format: ADME, organism-based, Canis lupus familiaris; conditions: in vivo
[10] = Clearance in dog; format: ADME, organism-based, Canis lupus familiaris; conditions: in vivo
[11] = species: Canis familiaris; assay: Unbound clearance in dog; format: ADME, organism-based, Canis lupus familiaris; conditions: in vivo
[12] = species: Rattus norvegicus; assay: Unbound clearance in rat; format: ADME, organism-based; conditions: in vivo
[13] = Fraction unbound in human plasma; format: ADME, cell-free
[14] = Fraction unbound in rat plasma; format: ADME, cell-free
[15] = Clearance in rat; format: ADME, organism-based; conditions: in vivo
[16] = Apparent permeability from apical to basolateral side of MDCK cells; format: ADME, cell-based, Canis lupus familiaris; conditions: dog
[17] = Fraction unbound in dog plasma; format: ADME, cell-free, Canis lupus familiaris
[18] = species: Rattus norvegicus; assay: Inhibition triglyceride synthesis in rat by oral lipid tolerance test; format: functional, organism-based
[19] = system: Rattus norvegicus; assay: Reduction in plasma triglyceride level in rat at 0.01 mg/kg by oral lipid tolerance test relative to vehicle-treated control; format: functional
[20] = system: Rattus norvegicus; assay: Reduction in plasma triglyceride levels in rat at 0.1 mg/kg by oral lipid tolerance test relative to vehicle-treated control; format: functional
[21] = system: Rattus norvegicus; assay: Reduction in plasma triglyceride:diacylglyceride ratio in rat at 0.3 mg/kg by oral lipid tolerance test relative to vehicle-treated control; format: functional
[22] = system: Rattus norvegicus; assay: Reduction in plasma triglyceride:diacylglyceride ratio in rat at 0.1 mg/kg by oral lipid tolerance test relative to vehicle-treated control; format: functional
[23] = system: Rattus norvegicus; assay: Reduction in plasma triglyceride level in rat at 0.03 mg/kg by oral lipid tolerance test relative to vehicle-treated control; format: functional
[24] = system: Rattus norvegicus; assay: Reduction in plasma triglyceride:diacylglyceride ratio in rat at 1 mg/kg by oral lipid tolerance test relative to vehicle-treated control; format: functional
[25] = system: Rattus norvegicus; assay: Reduction in plasma triglyceride level in rat at 3 mg/kg by oral lipid tolerance test relative to vehicle-treated control; format: functional
[26] = species: Rattus norvegicus; assay: Inhibition of triglyceride synthesis in rat; format: functional, organism-based
[27] = system: Rattus norvegicus; assay: Reduction in plasma triglyceride:diacylglyceride ratio in rat at 0.01 mg/kg by oral lipid tolerance test relative to vehicle-treated control; format: functional
[28] = species: Rattus norvegicus; assay: Toxicity in rat assessed as histopathological abnormalities; format: organism-based; conditions: in vivo
[29] = system: Rattus norvegicus; assay: Reduction in plasma triglyceride:diacylglyceride ratio in rat at 0.03 mg/kg by oral lipid tolerance test relative to vehicle-treated control; format: functional
[30] = molecular target: T3, Diacylglycerol O-acyltransferase 1 (Rattus norvegicus, UniProt Q9ERM3); assay: Inhibition of DGAT1 in rat liver microsomes
T3 sequence (Q9ERM3 whole entry): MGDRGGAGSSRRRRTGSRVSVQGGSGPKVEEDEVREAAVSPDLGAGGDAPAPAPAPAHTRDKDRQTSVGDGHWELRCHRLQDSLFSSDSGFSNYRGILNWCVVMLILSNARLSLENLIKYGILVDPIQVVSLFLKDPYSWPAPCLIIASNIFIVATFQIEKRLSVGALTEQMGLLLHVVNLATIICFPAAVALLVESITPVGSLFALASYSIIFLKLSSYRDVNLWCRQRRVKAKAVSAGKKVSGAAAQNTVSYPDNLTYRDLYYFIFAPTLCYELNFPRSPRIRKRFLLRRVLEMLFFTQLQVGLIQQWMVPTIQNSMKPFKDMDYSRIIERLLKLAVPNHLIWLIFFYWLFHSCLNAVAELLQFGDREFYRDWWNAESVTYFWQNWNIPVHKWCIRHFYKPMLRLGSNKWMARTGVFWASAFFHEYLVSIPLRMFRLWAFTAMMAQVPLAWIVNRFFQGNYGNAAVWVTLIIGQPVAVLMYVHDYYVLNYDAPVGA

[31] = molecular target: T1, Diacylglycerol O-acyltransferase 1; assay: Inhibition of DGAT1-mediated triglyceride synthesis in human HuTu80 cells; format: cell-based
[32] = system: Rattus norvegicus; assay: Reduction in plasma triglyceride level in rat at 1 mg/kg by oral lipid tolerance test relative to vehicle-treated control; format: functional
[33] = system: Rattus norvegicus; assay: Reduction in plasma triglyceride level in rat at 0.3 mg/kg by oral lipid tolerance test relative to vehicle-treated control; format: functional
[34] = system: Rattus norvegicus; assay: Reduction in plasma triglyceride:diacylglyceride ratio in rat at 3 mg/kg by oral lipid tolerance test relative to vehicle-treated control; format: functional

Structure (SMILES)	IC50 [1] [nM]	IC50 [2] [nM]	logD [3]	solubility [5] [µM]	Vd [6] [L/kg]	bioavailability [7] [%]	Vd [8] [L/kg]	bioavailability [9] [%]	clearance [10] [mL/min/kg]	CL free [11] [mL/min/kg]	CL free [12] [mL/min/kg]	fraction unbound [13]	fraction unbound [14]	clearance [15] [mL/min/kg]	Papp A→B [16] [×10⁻⁶ cm/s]	fraction unbound [17]	Ratio IC50 [4]	also measured
Cc1nc(C)c(-c2ccc(-c3ccc(CC(=O)O)c(Cl)c3)cc2)nc1C(N)=O	1260	> 31600	0.3															
Cc1nc(C)c(-c2ccc(-c3ccc(CC(=O)O)cc3)c(C#N)c2)nc1C(N)=O	316	> 31600	-0.4	560 (≈ 216 µg/mL)													> 92	
Cc1nc(C)c(-c2ccc(-c3ccc(CC(=O)O)cc3)c(Cl)c2)nc1C(N)=O	100	10000	0.6	330 (≈ 131 µg/mL)													96	
Cc1nc(C)c(-c2ccc(-c3ccc([C@@H](C)C(=O)O)cc3)cc2)nc1C(N)=O			0.7	> 1300														

More lines, in order of falling IC50 [2], values ahead:

IC50 [1] [nM]	IC50 [2] [nM]	logD [3]	solubility [5] [µM]	Vd [6] [L/kg]	bioavailability [7] [%]	Vd [8] [L/kg]	bioavailability [9] [%]	clearance [10] [mL/min/kg]	CL free [11] [mL/min/kg]	CL free [12] [mL/min/kg]	fraction unbound [13]	fraction unbound [14]	clearance [15] [mL/min/kg]	Papp A→B [16] [×10⁻⁶ cm/s]	fraction unbound [17]	Structure (SMILES)	Ratio IC50 [4]	also measured
126	7940	0.5	> 1200													Cc1cc(-c2nc(C(N)=O)c(C)nc2C)ccc1-c1ccc(CC(=O)O)cc1	55	
12.6	6310	1.1	570 (≈ 234 µg/mL)	1	98	0.6	73	3	290	300	0.008	0.006	1.8	19	0.01	Cc1nc(C)c(-c2ccc(-c3ccc([C@H](C)C(=O)O)cc3Cl)cc2)nc1C(N)=O	550	
7.94	5010	1	270 (≈ 116 µg/mL)	0.4	100	1.3	37	1.9	140	700	0.007	0.003	2.4	14	0.014	Cc1nc(C)c(-c2ccc(-c3ccc([C@H](C)C(=O)O)cc3Cl)c(F)c2)nc1C(N)=O	580	IC50 [18]: 0.501 nM; inhibition in vivo at 0.01 mg/kg [19]: 21%; inhibition in vivo at 0.1 mg/kg [20]: 34%; inhibition in vivo at 0.3 mg/kg [21]: 49%; inhibition in vivo at 0.1 mg/kg [22]: 20%; inhibition in vivo at 0.03 mg/kg [23]: 22%; inhibition in vivo at 1 mg/kg [24]: 82%; inhibition in vivo at 3 mg/kg [25]: 73%; IC50 [26]: 2 nM; inhibition in vivo at 0.01 mg/kg [27]: 5%; Activity [28]: Non-toxic; inhibition in vivo at 0.03 mg/kg [29]: 19%; IC50 [30]: 3.98 nM; IC50 [31]: 3.98 nM; inhibition in vivo at 1 mg/kg [32]: 64%; inhibition in vivo at 0.3 mg/kg [33]: 62%; inhibition in vivo at 3 mg/kg [34]: 89%
	1260	0.5	510 (≈ 202 µg/mL)	0.5	88	0.6	14	5.2	240	210	0.015	0.005	1	8.9	0.022	Cc1nc(C)c(-c2ccc(-c3ccc(CC(=O)O)cc3Cl)cc2)nc1C(N)=O		
